Source: US8410161B2, “Thioxanthone ring system derivatives” (National Defense Medical Center, priority 2010, dated 2013)

How the values were obtained:
A control cell lines = assay: MTT assay, A control cell lines (lung cancer cell); type: cell-based
Excerpt: Please refer to Table 1 and FIGS. 4A-4C. According to a MTT assay (Table 1), various cell viabilities of the A control cell lines can be obtained and illustrated in FIG. 4A while the compounds No. 2˜30 are used to treat A control cell lines, wherein A control cell lines are lung cancer cell.

A3 cell lines = assay: MTT assay, A3 cell lines (lung cancer stem cell); type: cell-based
Excerpt: Please to FIG. 4B, various cell viabilities of the A3 cell lines can be obtained through the MTT assay and illustrated in FIG. 4B while the compounds No. 1˜30 are used to treat A3 cell lines, wherein A3 cell lines are lung cancer stem cell.

[1] = MTT assay, HEL299 fibroblast; type: cell-based; conditions: human
Excerpt: Please refer to FIG. 4C, various cell viabilities of the HEL299 cell lines can be obtained through the MTT assay while the compounds No. 1˜30 are used to treat HEL299 cell lines, wherein HEL299 cell lines are fibroblast.

CCRF-CEM = assay: NCI in vitro DTP human cell line screen, CCRF-CEM; type: cell-based; conditions: Leukemia, 1.00E−5 Molar
Method: (§1) Then, a cell toxicity assay of the cancer lines made by National Cancer Institute will be discussed as follows. The cell toxicity assay is performed by choosing ten compounds (existing certification numbers) from the 59 compounds disclosed in the present invention first.

HL-60(TB) = assay: NCI in vitro DTP human cell line screen, HL-60(TB); type: cell-based; conditions: Leukemia, 1.00E−5 Molar
Method: as §1

K562 = assay: NCI in vitro DTP human cell line screen, K562; type: cell-based; conditions: Leukemia, 1.00E−5 Molar
Method: as §1

MOLT-4 = assay: NCI in vitro DTP human cell line screen, MOLT-4; type: cell-based; conditions: Leukemia, 1.00E−5 Molar
Method: as §1

RPMI-8226 = assay: NCI in vitro DTP human cell line screen, RPMI-8226; type: cell-based; conditions: Leukemia, 1.00E−5 Molar
Method: as §1

SR = assay: NCI in vitro DTP human cell line screen, SR; type: cell-based; conditions: Leukemia, 1.00E−5 Molar
Method: as §1

EKVX = assay: NCI in vitro DTP human cell line screen, EKVX; type: cell-based; conditions: Non-Small Cell Lung Cancer, 1.00E−5 Molar
Method: as §1

HOP-92 = assay: NCI in vitro DTP human cell line screen, HOP-92; type: cell-based; conditions: Non-Small Cell Lung Cancer, 1.00E−5 Molar
Method: as §1

NCI-H226 = assay: NCI in vitro DTP human cell line screen, NCI-H226; type: cell-based; conditions: Non-Small Cell Lung Cancer, 1.00E−5 Molar
Method: as §1

NCI-H23 = assay: NCI in vitro DTP human cell line screen, NCI-H23; type: cell-based; conditions: Non-Small Cell Lung Cancer, 1.00E−5 Molar
Method: as §1

NCI-H322M = assay: NCI in vitro DTP human cell line screen, NCI-H322M; type: cell-based; conditions: Non-Small Cell Lung Cancer, 1.00E−5 Molar
Method: as §1

NCI-H460 = assay: NCI in vitro DTP human cell line screen, NCI-H460; type: cell-based; conditions: Non-Small Cell Lung Cancer, 1.00E−5 Molar
Method: as §1

NCI-H522 = assay: NCI in vitro DTP human cell line screen, NCI-H522; type: cell-based; conditions: Non-Small Cell Lung Cancer, 1.00E−5 Molar
Method: as §1

COLO 205 = assay: NCI in vitro DTP human cell line screen, COLO 205; type: cell-based; conditions: Colon Cancer, 1.00E−5 Molar
Method: as §1

HCC-2998 = assay: NCI in vitro DTP human cell line screen, HCC-2998; type: cell-based; conditions: Colon Cancer, 1.00E−5 Molar
Method: as §1

HCT-116 = assay: NCI in vitro DTP human cell line screen, HCT-116; type: cell-based; conditions: Colon Cancer, 1.00E−5 Molar
Method: as §1

HCT-15 = assay: NCI in vitro DTP human cell line screen, HCT-15; type: cell-based; conditions: Colon Cancer, 1.00E−5 Molar
Method: as §1

HT29 = assay: NCI in vitro DTP human cell line screen, HT29; type: cell-based; conditions: Colon Cancer, 1.00E−5 Molar
Method: as §1

KM12 = assay: NCI in vitro DTP human cell line screen, KM12; type: cell-based; conditions: Colon Cancer, 1.00E−5 Molar
Method: as §1

SW-620 = assay: NCI in vitro DTP human cell line screen, SW-620; type: cell-based; conditions: Colon Cancer, 1.00E−5 Molar
Method: as §1

SF-268 = assay: NCI in vitro DTP human cell line screen, SF-268; type: cell-based; conditions: CNS Cancer, 1.00E−5 Molar
Method: as §1

SF-295 = assay: NCI in vitro DTP human cell line screen, SF-295; type: cell-based; conditions: CNS Cancer, 1.00E−5 Molar
Method: as §1

SF-539 = assay: NCI in vitro DTP human cell line screen, SF-539; type: cell-based; conditions: CNS Cancer, 1.00E−5 Molar
Method: as §1

SNB-19 = assay: NCI in vitro DTP human cell line screen, SNB-19; type: cell-based; conditions: CNS Cancer, 1.00E−5 Molar
Method: as §1

SNB-75 = assay: NCI in vitro DTP human cell line screen, SNB-75; type: cell-based; conditions: CNS Cancer, 1.00E−5 Molar
Method: as §1

U251 = assay: NCI in vitro DTP human cell line screen, U251; type: cell-based; conditions: CNS Cancer, 1.00E−5 Molar
Method: as §1

LOX IMVI = assay: NCI in vitro DTP human cell line screen, LOX IMVI; type: cell-based; conditions: Melanoma, 1.00E−5 Molar
Method: as §1

MALME-3M = assay: NCI in vitro DTP human cell line screen, MALME-3M; type: cell-based; conditions: Melanoma, 1.00E−5 Molar
Method: as §1

M14 = assay: NCI in vitro DTP human cell line screen, M14; type: cell-based; conditions: Melanoma, 1.00E−5 Molar
Method: as §1

MDA-MB-435 = assay: NCI in vitro DTP human cell line screen, MDA-MB-435; type: cell-based; conditions: Melanoma, 1.00E−5 Molar
Method: as §1

SK-MEL-2 = assay: NCI in vitro DTP human cell line screen, SK-MEL-2; type: cell-based; conditions: Melanoma, 1.00E−5 Molar
Method: as §1

SK-MEL-28 = assay: NCI in vitro DTP human cell line screen, SK-MEL-28; type: cell-based; conditions: Melanoma, 1.00E−5 Molar
Method: as §1

SK-MEL-5 = assay: NCI in vitro DTP human cell line screen, SK-MEL-5; type: cell-based; conditions: Melanoma, 1.00E−5 Molar
Method: as §1

UACC-257 = assay: NCI in vitro DTP human cell line screen, UACC-257; type: cell-based; conditions: Melanoma, 1.00E−5 Molar
Method: as §1

UACC-62 = assay: NCI in vitro DTP human cell line screen, UACC-62; type: cell-based; conditions: Melanoma, 1.00E−5 Molar
Method: as §1

IGROV1 = assay: NCI in vitro DTP human cell line screen, IGROV1; type: cell-based; conditions: Ovarian Cancer, 1.00E−5 Molar
Method: as §1

OVCAR-3 = assay: NCI in vitro DTP human cell line screen, OVCAR-3; type: cell-based; conditions: Ovarian Cancer, 1.00E−5 Molar
Method: as §1

OVCAR-4 = assay: NCI in vitro DTP human cell line screen, OVCAR-4; type: cell-based; conditions: Ovarian Cancer, 1.00E−5 Molar
Method: as §1

OVCAR-5 = assay: NCI in vitro DTP human cell line screen, OVCAR-5; type: cell-based; conditions: Ovarian Cancer, 1.00E−5 Molar
Method: as §1

OVCAR-8 = assay: NCI in vitro DTP human cell line screen, OVCAR-8; type: cell-based; conditions: Ovarian Cancer, 1.00E−5 Molar
Method: as §1

NCI/ADR-RES = assay: NCI in vitro DTP human cell line screen, NCI/ADR-RES; type: cell-based; conditions: Ovarian Cancer, 1.00E−5 Molar
Method: as §1

SK-OV-3 = assay: NCI in vitro DTP human cell line screen, SK-OV-3; type: cell-based; conditions: Ovarian Cancer, 1.00E−5 Molar
Method: as §1

786-0 = assay: NCI in vitro DTP human cell line screen, 786-0; type: cell-based; conditions: Renal Cancer, 1.00E−5 Molar
Method: as §1

ACHN = assay: NCI in vitro DTP human cell line screen, ACHN; type: cell-based; conditions: Renal Cancer, 1.00E−5 Molar
Method: as §1

CAKI-1 = assay: NCI in vitro DTP human cell line screen, CAKI-1; type: cell-based; conditions: Renal Cancer, 1.00E−5 Molar
Method: as §1

RXF 393 = assay: NCI in vitro DTP human cell line screen, RXF 393; type: cell-based; conditions: Renal Cancer, 1.00E−5 Molar
Method: as §1

SN12C = assay: NCI in vitro DTP human cell line screen, SN12C; type: cell-based; conditions: Renal Cancer, 1.00E−5 Molar
Method: as §1

TK-10 = assay: NCI in vitro DTP human cell line screen, TK-10; type: cell-based; conditions: Renal Cancer, 1.00E−5 Molar
Method: as §1

UO-31 = assay: NCI in vitro DTP human cell line screen, UO-31; type: cell-based; conditions: Renal Cancer, 1.00E−5 Molar
Method: as §1

PC-3 = assay: NCI in vitro DTP human cell line screen, PC-3; type: cell-based; conditions: Prostate Cancer, 1.00E−5 Molar
Method: as §1

DU145 = assay: NCI in vitro DTP human cell line screen, DU145; type: cell-based; conditions: Prostate Cancer, 1.00E−5 Molar
Method: as §1

MCF7 = assay: NCI in vitro DTP human cell line screen, MCF7; type: cell-based; conditions: Breast Cancer, 1.00E−5 Molar
Method: as §1

MDA-MB-231/ATCC = assay: NCI in vitro DTP human cell line screen, MDA-MB-231/ATCC; type: cell-based; conditions: Breast Cancer, 1.00E−5 Molar
Method: as §1

HS 578-T = assay: NCI in vitro DTP human cell line screen, HS 578-T; type: cell-based; conditions: Breast Cancer, 1.00E−5 Molar
Method: as §1

BT-549 = assay: NCI in vitro DTP human cell line screen, BT-549; type: cell-based; conditions: Breast Cancer, 1.00E−5 Molar
Method: as §1

T-47D = assay: NCI in vitro DTP human cell line screen, T-47D; type: cell-based; conditions: Breast Cancer, 1.00E−5 Molar
Method: as §1

MDA-MB-468 = assay: NCI in vitro DTP human cell line screen, MDA-MB-468; type: cell-based; conditions: Breast Cancer, 1.00E−5 Molar
Method: as §1

60 cancer lines = assay: NCI cell toxicity assay of 60 cancer lines, whole panel summary; type: cell-based, human; conditions: 1.00E−5 Molar
Method: as §1

Q: Which results are given for `O=c1c2ccccc2sc2c(Cl)c(Sc3ccc(Cl)cc3)ccc12` [No. 29, 4-Chloro-3-(4-chlorophenylthio)-9H-thioxanthen-9-one]?
A: cell viabilities of A control cell lines (MTT assay) (A control cell lines): 70.1 ± 2.68%; cell viabilities of A3 cell lines (MTT assay) (A3 cell lines): 70.3 ± 5.31%; viability [1]: 74.5 ± 9.39%; Growth Percent (CCRF-CEM): 67.42%; Growth Percent (HL-60(TB)): 105.61%; Growth Percent (K562): 96.64%; Growth Percent (MOLT-4): 94.77%; Growth Percent (RPMI-8226): 88.56%; Growth Percent (SR): 51.19%; Growth Percent (EKVX): 73.14%; Growth Percent (HOP-92): 49.52%; Growth Percent (NCI-H226): 81.05%; Growth Percent (NCI-H23): 83.03%; Growth Percent (NCI-H322M): 56.53%; Growth Percent (NCI-H460): 40.25%; Growth Percent (NCI-H522): 80.48%; Growth Percent (COLO 205): 87.02%; Growth Percent (HCC-2998): 98.92%; Growth Percent (HCT-116): 54.33%; Growth Percent (HCT-15): 85.15%; Growth Percent (HT29): 86.36%; Growth Percent (KM12): 73.79%; Growth Percent (SW-620): 75.00%; Growth Percent (SF-268): 81.14%; Growth Percent (SF-295): 57.86%; Growth Percent (SF-539): 86.15%; Growth Percent (SNB-19): 74.97%; Growth Percent (SNB-75): 76.16%; Growth Percent (U251): 47.77%; Growth Percent (LOX IMVI): 63.24%; Growth Percent (MALME-3M): 76.90%; Growth Percent (M14): 89.62%; Growth Percent (MDA-MB-435): 85.11%; Growth Percent (SK-MEL-2): 105.36%; Growth Percent (SK-MEL-28): 114.93%; Growth Percent (SK-MEL-5): 88.35%; Growth Percent (UACC-257): 99.23%; Growth Percent (UACC-62): 82.23%; Growth Percent (IGROV1): 53.39%; Growth Percent (OVCAR-3): 90.37%; Growth Percent (OVCAR-4): 31.58%; Growth Percent (OVCAR-5): 107.36%; Growth Percent (OVCAR-8): 64.49%; Growth Percent (NCI/ADR-RES): 81.27%; Growth Percent (SK-OV-3): 73.85%; Growth Percent (786-0): 84.66%; Growth Percent (ACHN): 39.55%; Growth Percent (CAKI-1): 48.21%; Growth Percent (RXF 393): 97.81%; Growth Percent (SN12C): 70.19%; Growth Percent (TK-10): 88.86%; Growth Percent (UO-31): 69.61%; Growth Percent (PC-3): 77.10%; Growth Percent (DU145): 108.68%; Growth Percent (MCF7): 83.90%; Growth Percent (MDA-MB-231/ATCC): 77.55%; Growth Percent (HS 578-T): 102.79%; Growth Percent (BT-549): 87.92%; Growth Percent (T-47D): 85.63%; Growth Percent (MDA-MB-468): 87.73%; Growth Percent, Mean (60 cancer lines; mean over all cell lines): 78.44%; cancer types with the better inhibition effect (in words) (60 cancer lines; summary of Table 3): better inhibition effect on Leukemia, non-small cell lung cancer, colorectal cancer, central nervous system cancer, ovarian cancer and kidney cancer
